In patent US20210154161A1, “MODIFIED-RELEASE BUCILLAMINE COMPOSITIONS, KITS, AND METHODS FOR TREATING CYSTINURIA, ARTHRITIS, GOUT, AND RELATED DISORDERS” (ALTIBIO, INC., priority 2017, published 2021):

Assays:
[1] = Example 3: cystine stone formation in cystinuria patients, about 1 week; type: in vivo, human; details: Days 2-8, enterically-coated bucillamine oral 100 mg x 8 or x 12 times/day
Experimental: This Example describes a study to confirm the improved efficacy of reducing cystine stone formation in cystinuria patients who develop at least one stone per week using standard Thiola® dosing. Study Design: […] The patients are dosed as follows: Day 1: No treatment; an X-ray is taken of the kidney and bladder. Days 2-8: To simulate extended release, enterically-coated bucillamine is orally administered at either 100 mg x 8 times/day (i.e., every three hours) or 100 mg x 12 times/day (i.e., every two hours). A simple enteric coating is used that avoids release in the stomach. Also, 24 hour urine cystine capacity is measured, that is, all urine over a 24-hour period, starting from the time of the first dose, is collected and used to measure urinary cystine concentration. Day 8: X-ray examination of Day 1 is repeated.

[2] = Example 5: urine cystine in cystinuria dogs, simulated extended-release bucillamine; type: in vivo; details: enterically-coated bucillamine 8 times/day, same total daily dosage
Experimental: This Example describes a study to confirm the feasibility of reducing cystine levels in the urine of cystinuria dogs receiving more frequent and lower doses of bucillamine, in a dosing schedule designed to simulate the extended release formulations of the present invention, compared to urine cystine levels in cystinuria dogs receiving non-coated bucillamine. Study Design: Subject dogs are dosed as follows: Day 1: […] Day 2: Repeat Day 1 Day 3: No treatment Day 4: No treatment Day 5: To simulate extended-release, enterically-coated bucillamine is orally administered at lower dose, 8 times/day (i.e., every three hours), to provide a total daily dosage equal to that used in Days 1 and 2. A simple enteric coating is used that avoids release in the stomach. Also, 24 hour urine cystine capacity is measured, that is, all urine over a 24-hour period, starting from the time of the first dose, is collected and used to measure urinary cystine concentration. Day 6: Repeat Day 5

[3] = Total bucillamine plasma concentration after oral or intraduodenal dosing regimens; type: in vivo, male Beagle dogs; details: n=3 dogs
Experimental: (§1) The objective of this study was to evaluate total and free plasma bucillamine, and urinary bucillamine, in male Beagle dogs following oral and intraduodenal administration of bucillamine, according to various dose regimens, to determine whether different regimens, simulating modified release in accordance with the present invention, would improve drug pharmacokinetics. Specifically, bucillamine formulations were administered to deliver 30 mg/kg per dog via single or multiple doses divided over a 12-hour period; and blood and urine samples then collected at different times post-dose.
(§2) Bucillamine formulations were administered to provide 30 mg/kg per dog according to five different dosage regimens (Leg 1, Leg 2, Leg 3, Leg 4, and Leg 5), as set forth in the table below. Leg 2, Leg 3, and Leg 4 (also referred to as Q6H, Q3H, and Q2H, respectively) were designed to simulate modified-release formulations, in accordance with certain embodiments of the present invention. Following administration, blood and urine samples were collected at the time points, or over the time intervals, also as indicated below.
(§3) Preparation of Dosing Formulations: Capsules for Legs 1-5 were prepared and filled on the day of dosing, as follows. For Legs 1, 2, and 5, bucillamine was dry mixed with avicel and mannitol to make a 40:30:30 mixture of bucillamine to avicel to mannitol, respectively; for study Legs 3 and 4, a 20:40:40 mixture of bucillamine to avicel to mannitol, respectively, was prepared. The dry mixes were custom filled with the appropriate amount of powder to deliver the specified doses to each dog based, on their respective body weights.
(§4) Animal Dosing and Sample Collection: This non-clinical study followed established practices and standard operating procedures of Absorption Systems and Absorption Systems Inc., as well as the study protocol. Study groups each included three dogs. The dogs were housed one per cage. For Legs 1-4, the dogs were fasted for at least six hours prior to each administration of the formulation. For Legs 1-4, food was given approximately ten hours post initial dosing. Animals had free access to water throughout the study. For Leg 5, the dogs were fasted for at least sixteen hours prior to each administration of the formulation. For Leg 5, food was given approximately eight hours post initial dosing. Animals had free access to water throughout the study. Additionally, each dog received a 60 mL subcutaneous injection of saline (a 30 mL injection, into each two different sites) approximately 30 minutes prior to dosing, for hydration.
(§5) Intraduodenal (ID) administration: Animals were anesthetized by a slow IV infusion of Propofol (6-10 mg/kg), or with an intramuscular injection of a cocktail containing ketamine (approximately 10-20 mg/kg), diazepam (3 mg/kg), and acepromazine (0.05 mg/kg) given IM about 5-10 minutes before intubation. Once animals were confirmed adequately anesthetized, they were intubated and maintained using isoflurane (approximately 1-5% in oxygen 1 to 4 L/min) as necessary until dosing was complete. Formulations were administered into the proximal duodenum via endoscopic guidance to verify the dosing site. The endoscope first was maneuvered into the pyloric sphincter with camera visualization of the proximal duodenum. Once there was confirmation that the endoscope was placed between the pylorus and proximal duodenum, the test article was delivered to the proximal duodenum followed by a 5 mL flush. […]

[4] = Bucillamine urinary recovery after oral or intraduodenal dosing regimens; type: in vivo, male Beagle dogs; details: for % of the dose (unchanged drug) found in urine, on average: n=3 dogs
Experimental: as §1, §2, §3, §4
as §5, with “flush. Upon completion of the dosing, the animals were taken off the isoflurane and allowed to recover from anesthesia. Time points began upon completion of the entire dose procedure. Following each blood sampling time point, 15 mL of water was given to each dog via syringe. Approximately 30 minutes prior to the 0 hour blood collection, each dog received a subcutaneous injection of 60 mL of saline (a 30 mL injection into each of two different sites) for hydration.” for “flush.”

[5] = Leg 2: PO 30 mg/kg as two 15 mg/kg doses at 0 and 6 h
[6] = Leg 3 (Q3H): PO 30 mg/kg as four 7.5 mg/kg doses at 0, 3, 6, 9 h
[7] = Leg 4: PO 30 mg/kg as six 5 mg/kg doses at 0, 2, 4, 6, 8, 10 h

For `CC(C)(S)C(=O)N[C@@H](CS)C(=O)O` [bucillamine, N-(2-mercapto-2-methylpropionyl)-L-cysteine], the “additional cystine stones on X-ray of Day 8 compared to Day 1” value [1] was “no additional stones”, the “urine cystine levels over Days 5-6 compared with Days 1-2 of uncoated (immediate-release) dosing” value [2] was “consistently lower” and the “maximum plasma concentrations of total bucillamine (average)” value (“maximum plasma concentrations” below) ([3]; Leg 1 (Q12H): PO, single 30 mg/kg dose) was 24400 ± 8253 ng/mL. The “maximum plasma concentrations” value [3, 5] was 33533 ± 2139 ng/mL, the “maximum plasma concentrations” value [3, 6] was 25133 ± 3500 ng/mL and the “maximum plasma concentrations” value [3, 7] was 23800 ± 819 ng/mL. For the same compound, the “maximum plasma concentrations” value ([3]; Leg 5 (Q12H): ID, single 30 mg/kg dose) was 19940 ± 11015 ng/mL, the “% of the dose (unchanged drug) found in urine, on average” value (shortened to “% of the dose (unchanged drug) found”) ([4]; Leg 1: PO, single 30 mg/kg dose) was 57.3±25.8% and the “% of the dose (unchanged drug) found” value [4, 5] was 54.5±6.63%. For the same compound, the “% of the dose (unchanged drug) found” value [4, 6] was 25.8±14.0%, the “% of the dose (unchanged drug) found” value [4, 7] was 16.1±5.65% and the “% of the dose (unchanged drug) found” value ([4]; Leg 5: ID, single 30 mg/kg dose) was 20.2±7.51%. For the same compound, the “share of the drug recovered in urine excreted within the first 4 hours” value ([4]; Q12H schedule, PO single 30 mg/kg dose, FIG. 22, n=2 dogs) was 80%.
